In this assay the test system is human acute T cell leukemic cell Jurkat. In words: MTT anti-proliferation, Jurkat. Type of assay: cell-based. The note with it: for growth inhibition (activities of cells vs control): 1-20 μM; for IC50: MTT. The procedure: Cells in logarithmic growth phase were collected and then inoculated in 1˜2×10^4 cells/well in a 96-well plate respectively according to the sizes of cells and whether they attached to the wall, the cells were centrifuged and the supernatant was removed after growing for 24 hours, and then drug administration was carried out according to the groups as below: the drug group and the drug free group were set up for tumor cells (the concentrations ranged from 1˜20 μM), 5 or 6 duplicates were set for each group and the cells were incubated for 24 or 72 hours. The supernatant was removed and 100 μl serum free culture solution containing 0.5 mg/ml MTT (tetrazolium) was added for further incubation for 4 hours, subsequently 100 μl DMSO (dimethyl sulfoxide) was added and the plate was kept on the micro-shaker for 10 minutes, and the OD value was determined on a micro-plate reader at the wavelength of 570 nm. Evaluations on the toxicity were carried out on normal human cell line LO-2 and each test was repeated for three times.

Here are results for 1 molecule from patent US20110136916A1, “6-SHOGAOL FOR USING IN A METHOD FOR THE TREATMENT OF LEUKEMIA” (China Pharmaceutical University, priority 2009, published 2011).

What is called IC50 is the concentration that gives 50% inhibition.

SMILES strings stand for the structures. Where two headings read alike, the source gives them in different places.

Consider `CCCCC/C=C/C(=O)CCc1ccc(O)c(OC)c1` [6-shogaol], for which the “growth inhibition (activities of cells vs control)” value reads like this: (24 hours, FIG. 3) “significantly decreased”; (72 hours, FIG. 7) “significantly decreased”. For the same molecule, the IC50 was < 10 µM (Homo sapiens, 24 h, 24 hours, n = 3, read-out: Mean IC50 after 24 hours); < 5 µM (Homo sapiens, 72 h, 72 hours, n = 3, read-out: Mean IC50 after 72 hours); 5.6 ± 0.4 µM (24 hours, n = 3, read-out: Mean IC50 after 24 hours); 3.3 ± 0.3 µM (72 hours, n = 3, read-out: Mean IC50 after 72 hours).
